Key:
MIA PaCa-2 cells = assay: Test Example 3: growth inhibition activity on KRAS-G12C mutant cell line (MIA PaCa-2); type: cell-based; conditions: Homo sapiens, 72 h, MIA PaCa-2, 3-day culture, CellTiter-Glo 3D, read-out: CTX MiaPaCa IC50
Experimental: Test Example 3: Assay of Growth Inhibition Activity on KRAS-G12C Mutant Cell Line (MIA PaCa-2) (In Vitro)
MIA PaCa-2 cells (provided by Sumitomo Dainippon Pharma Co., Ltd.), which are a KRAS-G12C mutant human pancreas cancer cell line, were suspended in a 10% fetal bovine serum-containing RPMI1640 medium (manufactured by Fujifilm Wako Pure Chemical Corporation.). The cell suspension was seeded into each well of a 384-well U bottom microplate and cultured in an incubator containing 5% CO2 gas at 37° C. for 1 day. The compounds obtained in the Examples section were used as test compounds and were dissolved in DMSO, respectively, and each test compound was diluted with DMSO to give a concentration 500 times the final concentration. The resultant solution of the test compound in DMSO was diluted with the medium used for suspending cells and added to each well of the cell-culture plate to give a DMSO final concentration of 0.2%, followed by culture in an incubator containing 5% CO2 gas at 37° C. for another 3 days. The cell count after 3-day culture in the presence of the test compound was measured using CellTiter-Glo 3D Reagent (manufactured by Promega Corporation). To all cells were added with CellTiter-Glo 3D Reagent and mixed for 10 minutes. 30 minutes after mixing, luminescence was measured by a plate reader. The growth inhibition rate was calculated from the following equation, and the concentration of the test compound at which 50% inhibition was achieved (IC50 (nM)) was determined.
[formula] • T: the emission intensity in a well into which a test compound was added. • C: the emission intensity in a well into which a test compound was not added.

[1] = biological target: T1, Recombinant KRAS G12C mutant protein (amino acids 1-169, SEQ ID NO: 1) (Homo sapiens, UniProt P01116, G12C); assay: Test Example 1: inhibitory activity on KRAS G12C nucleotide (GDP-GTP) exchange reaction in vitro; type: biochemical; conditions: BODIPY FL GDP-bound KRAS G12C incubated with compound at 25° C. for 1 hour, then SOS1 and GMPPNP, read-out: GNE IC50
T1 construct: His6 (N); TEV protease site (ENLYFQG; named from own knowledge) (N); made in house; host or cells: E. coli
Experimental: Test Example 1: Evaluation of inhibitory activity of compounds on KRAS G12C nucleotide (GDP-GTP) exchange reaction in vitro
Recombinant KRAS G12C mutant protein (amino acids 1-169, SEQ ID NO: 1) and cleaved recombinant SOS1 (amino acids 564-1049, SEQ ID NO:2) proteins were expressed in E. coli and purified by affinity chromatography.
To prepare BODIPY FL GDP-bound KRAS G12C protein, 50 μM KRAS G12C protein was incubated with 0.5 mM BODIPY FL GDP in a loading buffer (20 mM Tris-HCl (pH 7.5), 50 mM NaCl, 1 mM DTT and 2.5 mM EDTA) for 1 hour on ice. After the incubation, MgCl2 was added to a final concentration of 10 mM, followed by incubation at room temperature for 30 minutes. The mixture was allowed to pass through a NAP-5 column to remove free nucleotides and purified BODIPY FL GDP-bound KRAS G12C protein was used for compound evaluation.
For the measurement of the inhibitory activity of compounds on GDP-GTP exchange rate of recombinant KRAS G12C, BODIPY FL GDP-bound KRAS G12C protein was incubated with various concentrations of compound in a reaction buffer (20 mM Tris-HCl (pH 7.5), 100 mM NaCl, 1 mM MgCl2, 2 mM DTT, 0.1% Tween 20) at 25° C. for 1 hour. After the incubation, recombinant SOS1 and Guanosine-5′-[(β,γ)-imido]triphosphate, Tetralithium salt (GMPPNP) (Jena Bioscience GmbH) were added and incubated at room temperature for 30 minutes to proceed SOS1-dependent GDP-GTP exchange reaction on KRAS G12C. Replacement of BODIPY FL GDP by GMPPNP was measured by calculating the ratio of fluorescence intensities of BODIPY FL before and after the exchange reaction. Inhibition % was calculated by setting the fluorescence ratio from the reaction without test compound (DMSO control) and the fluorescence ratio from the reaction without SOS1 and GMPPNP as 0% and 100% inhibition, respectively. IC50 values were calculated from dose titration curve using curve fitting by XLfit software (IDBS).

[2] = biological target: T2, interaction between KRAS G12C and cRAF-RBD (Homo sapiens, UniProt P01116, G12C); assay: Test Example 2: inhibitory activity on interaction between KRAS G12C and cRAF (Alpha technology); type: binding; conditions: GMPPNP-bound KRAS G12C incubated with compound at 25° C. for 1 hour, then cRAF-RBD
T2 construct: TEV protease site (ENLYFQG); made in house; host or cells: E. coli
Experimental: Test Example 2: Evaluation of Inhibitory Activity of Compounds on Interaction Between KRAS G12C and cRAF (In Vitro)
Interaction between recombinant KRAS G12C mutant protein (SEQ ID NO: 1) and cRAF RAS-binding domain (cRAF-RBD, amino acids 50-132, Jena Biosciences GmbH) was measured using Alpha technology (PerkinElmer Inc.).
Recombinant KRAS G12C protein with an N-terminal His-tag was expressed in E. coli and purified by affinity chromatography. To prepare GTP-bound form and GDP-bound form of KRAS G12C protein, 50 μM KRAS G12C protein was incubated with 1 mM GMPPNP (Jena Bioscience GmbH) and 1 mM GDP, respectively, in a loading buffer (20 mM Tris-HCl (pH 7.5), 50 mM NaCl, 1 mM DTT and 2.5 mM EDTA) for 1 hour on ice. After the incubation, MgCl2 was added to a final concentration of 10 mM, followed by incubation at room temperature for 30 minutes. The mixture was allowed to pass through a NAP-5 column to remove free nucleotides and purified, and the resultant nucleotide-bound KRAS G12C protein was used for compound evaluation.
For the measurement of the inhibitory activity of compounds on interaction between KRAS G12C and cRAF-RBD, GMPPNP-bound KRAS G12C protein was incubated with various concentrations of compound in a reaction buffer (20 mM Tris-HCl (pH 7.5), 100 mM NaCl, 1 mM MgCl2, 1 mM TCEP, 0.1% Tween 20) at 25° C. for 1 hour. After the incubation, recombinant cRAF-RBD and Alpha detection reagents were added and incubated at room temperature for 1.5 hours for binding. Interaction of KRAS G12C and cRAF-RBD was monitored by measuring Alpha signal. Inhibition % was calculated using the signal from the reaction without test compound (DMSO control) as 0% inhibition and the signal from the reaction using GDP-bound KRAS G12C in place of GMPPNP-bound KRAS G12C as 100% inhibition. IC50 values were calculated from dose titration curve using curve fitting by XLfit software (IDBS).

T2 sequence (P01116 with tags, fused parts or gaps isoform P01116-2 G12C): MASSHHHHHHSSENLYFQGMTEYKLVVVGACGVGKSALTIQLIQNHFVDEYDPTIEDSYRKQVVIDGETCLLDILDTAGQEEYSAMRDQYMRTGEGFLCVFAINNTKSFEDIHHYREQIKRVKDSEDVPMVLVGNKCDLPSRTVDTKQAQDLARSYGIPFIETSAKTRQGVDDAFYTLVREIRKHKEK
T1 sequence (P01116 with tags, fused parts or gaps isoform P01116-2 G12C): as above

**Q.** How did the IC50 (MIA PaCa-2 cells) turn out when `CO[C@H]1CC[C@H](NC/C=C/C(=O)N2CCN(c3nc(OC[C@@H]4CCCN4C)nc4c3CO[C@H](c3cc(O)cc5cccc(Br)c35)C4)C[C@@H]2CC#N)CC1` [Example 11, 2-((S)-4-((S)-7-(8-bromo-3-hydroxynaphthalen-1-yl)-2-(((S)-1-methylpyrrolidin-2-yl)methoxy)-7,8-dihydro-5H-pyrano[4,3-d]pyrimidin-4-yl)-1-((E)-4-(((1r,4S)-4-methoxycyclohexyl)amino)-but-2-enoyl)piperazin-2-yl)-acetonitrile] was run?
**A.** 21.7 nM

**Q.** What about the IC50 [1] of the same molecule?
**A.** 0.81 nM

**Q.** What about the IC50 [2] of the same molecule?
**A.** 182 nM

**Q.** With `C#Cc1cccc2cccc([C@@H]3Cc4nc(OCC5(CN6CCOCC6)CC5)nc(N5CCN(C(=O)/C=C/CN6CCC(OC)CC6)[C@@H](CC#N)C5)c4CO3)c12` [Example 12, 2-((S)-4-((S)-7-(8-ethynyl-naphthalen-1-yl)-2-((1-(morpholinomethyl)cyclo-propyl)methoxy)-7,8-dihydro-5H-pyrano[4,3-d]pyrimidin-4-yl)-1-((E)-4-(4-methoxypiperidin-1-yl)-but-2-enoyl)piperazin-2-yl)-acetonitrile] as the molecule, how does the IC50 (MIA PaCa-2 cells) read?
**A.** 170 nM

**Q.** What about the IC50 [1] of the same molecule?
**A.** 6.7 nM

**Q.** What about the IC50 [2] of the same molecule?
**A.** 309 nM

**Q.** For `C#Cc1cccc2cc(O)cc([C@@H]3Cc4nc(OCC5(CN(C)C)CC5)nc(N5CCN(C(=O)/C=C/CN6CCC(OC)CC6)[C@@H](CC#N)C5)c4CO3)c12` [Example 13, 2-((S)-4-((S)-2-((1-((dimeth-ylamino)methyl)cycloprop-yl)methoxy)-7-(8-ethynyl-3-hydroxynaphthalen-1-yl)-7,8-dihydro-5H-pyrano[4,3-d]pyrimidin-4-yl)-1-((E)-4-(4-methoxypiperidin-1-yl)-but-2-enoyl)piperazin-2-yl)-acetonitrile], which IC50 (MIA PaCa-2 cells) is on record?
**A.** 6.21 nM

**Q.** What about the IC50 [1] of the same molecule?
**A.** 0.91 nM

**Q.** And the IC50 [2]?
**A.** 51.3 nM

**Q.** `C#Cc1cccc2cc(O)cc([C@@H]3Cc4nc(OC[C@@H]5CCCN5C)nc(N5C[C@H](CC#N)N(C(=O)/C=C/CN6CCC(OC)CC6)C[C@H]5C)c4CO3)c12` [Example 14, 2-((2S,5R)-4-((S)-7-(8-ethynyl-3-hydroxynaph-thalen-1-yl)-2-(((S)-1-meth-ylpyrrolidin-2-yl)methoxy)-7,8-dihydro-5H-pyrano[4,3-d]pyrimidin-4-yl)-1-((E)-4-(4-methoxypiperidin-1-yl)-but-2-enoyl)-5-methylpiper-azin-2-yl)acetonitrile] was tested. Which IC50 (MIA PaCa-2 cells) did it give?
**A.** 7.88 nM

**Q.** And the IC50 [1]?
**A.** 0.82 nM

**Q.** What about the IC50 [2] of the same molecule?
**A.** 531 nM

**Q.** How did the IC50 (MIA PaCa-2 cells) turn out when `C#Cc1cccc2cc(O)cc([C@@H]3Cc4nc(OC[C@@H]5CCCN5C)nc(N5C[C@H](CC#N)N(C(=O)/C=C/CN6CCC(OC)CC6)C[C@@H]5C)c4CO3)c12` [Example 15, 2-((2S,5S)-4-((S)-7-(8-ethynyl-3-hydroxynaph-thalen-1-yl)-2-(((S)-1-meth-ylpyrrolidin-2-yl)methoxy)-7,8-dihydro-5H-pyrano[4,3-d]pyrimidin-4-yl)-1-((E)-4-(4-methoxypiperidin-1-yl)-but-2-enoyl)-5-methyl-piperazin-2-yl)acetonitrile] was run?
**A.** 1920 nM

**Q.** What about the IC50 [1] of the same molecule?
**A.** 103 nM

**Q.** And the IC50 [2]?
**A.** > 6670 nM

**Q.** Which results are given for `C#Cc1cccc2cc(O)cc(C3Cc4nc(OC5CN(S(C)(=O)=O)C5)nc(N5CCN(C(=O)/C=C/CN6CCC(OC)CC6)[C@@H](CC#N)C5)c4CO3)c12` (stereo partly drawn) [Example 16, 2-((2S)-4-(7-(8-ethynyl-3-hydroxynaphthalen-1-yl)-2-((1-(methylsulfonyl)azeti-din-3-yl)oxy)-7,8-dihydro-5H-pyrano[4,3-d]pyrimidin-4-yl)-1-((E)-4-(4-methoxy-piperidin-1-yl)but-2-enoyl)-piperazin-2-yl)acetonitrile]?
**A.** IC50 (MIA PaCa-2 cells): > 10000 nM; IC50 [1]: 338 nM; IC50 [2]: > 6670 nM

**Q.** Which IC50 (MIA PaCa-2 cells) does the source give for `C#Cc1cccc2cc(O)cc([C@@H]3Cc4nc(OCC5(COC)CC5)nc(N5CCN(C(=O)/C=C/CN6CCC(OC)CC6)[C@@H](CC#N)C5)c4CO3)c12` [Example 17, 2-((S)-4-((S)-7-(8-ethynyl-3-hydroxynaphthalen-1-yl)-2-((1-(methoxymethyl)-cyclopropyl)methoxy)-7,8-dihydro-5H-pyrano[4,3-d]-pyrimidin-4-yl)-1-((E)-4-(4-methoxypiperidin-1-yl)but-2-enoyl)piperazin-2-yl)-acetonitrile] here?
**A.** 543 nM

**Q.** What about the IC50 [1] of the same molecule?
**A.** 255 nM

**Q.** What about the IC50 [2] of the same molecule?
**A.** > 6670 nM

**Q.** With `C#Cc1cccc2cc(O)cc([C@@H]3Cc4nc(OCC5(C(=O)N(C)C)CC5)nc(N5CCN(C(=O)/C=C/CN6CCC(OC)CC6)[C@@H](CC#N)C5)c4CO3)c12` [Example 18, 1-((((S)-4-((S)-3-(cyano-methyl)-4-((E)-4-(4-meth-oxypiperidin-1-yl)but-2-enoyl)piperazin-1-yl)-7-(8-ethynyl-3-hydroxynaph-thalen-1-yl)-7,8-dihydro-5H-pyrano[4,3-d]pyrimidin-2-yl)oxy)methyl)-N,N-dimethylcyclopropane-1-carboxamide] as the molecule, how does the IC50 (MIA PaCa-2 cells) read?
**A.** 4460 nM

**Q.** And the IC50 [1]?
**A.** 58.7 nM

**Q.** And the IC50 [2]?
**A.** > 6670 nM

**Q.** `C#Cc1cccc2cc(O)cc(C3Cc4nc(OC[C@@H]5CCCN5C)nc(N5CCN(C(=O)/C=C/CN6CCC(OC)CC6)[C@@H](CO)C5)c4CO3)c12` (stereo partly drawn) [Example 19, (E)-1-((2R)-4-(7-(8-ethynyl-3-hydroxynaphthalen-1-yl)-2-(((S)-1-methylpyrrolidin-2-yl)methoxy)-7,8-dihydro-5H-pyrano[4,3-d]pyrimidin-4-yl)-2-(hydroxymethyl)-piperazin-1-yl)-4-(4-meth-oxypiperidin-1-yl)but-2-en-1-one] was tested. Which IC50 (MIA PaCa-2 cells) did it give?
**A.** 8250 nM

**Q.** And the IC50 [1]?
**A.** 46.7 nM

**Q.** What about the IC50 [2] of the same molecule?
**A.** 3550 nM

— patent US20240417408A1, “SMALL MOLECULE INHIBITORS OF KRAS G12C MUTANT” (MERCK SHARP & DOHME CORP., priority 2021, published 2024)
